Data as given in ChEMBL document CHEMBL1949607, “p-Terphenyl and diterpenoid metabolites from endophytic Aspergillus sp. YXf3” (J Nat Prod, 2012).

Assay: Inhibition of viral neuraminidase after 20 mins by fluorescence assay

Row | SMILES | IC50
1 | COc1cc(-c2ccccc2)c(OC)c(O)c1-c1ccc(O)c(O)c1 | > 30 µM
2 | COc1cc(-c2ccc(O)cc2)c(OC)c(O)c1-c1ccc(O)c(O)c1 | 9.17 µM
3 | COc1c(-c2ccc(O)cc2)cc(O)c(-c2ccc(O)cc2)c1O | > 30 µM
4 | COc1c(-c2ccccc2)cc(O)c(-c2ccc(O)cc2)c1O | > 30 µM
5 | C=C[C@@]1(C)CC[C@H]2C(=C[C@H](O)[C@H]3C(C)(C)CC[C@@H](O)[C@]23C)[C@H]1O (relative stereo) | > 30 µM
6 | COc1c(-c2ccc(O)cc2)cc(OC)c2c1oc1cc(O)c(O)cc12 [CANDIDUSIN A] | > 30 µM
7 | CCOC(=O)C1=C[C@@H](OC(CC)CC)[C@H](NC(C)=O)[C@@H](N)C1 [OSELTAMIVIR] | 0.14 µM

Continued, values first:

Row | IC50 | SMILES
8 | 9.05 µM | COc1c(-c2ccccc2)cc(OC)c2c1oc1cc(O)c(O)cc12
9 | > 30 µM | COc1cc2oc3c(OC)c(-c4ccc(O)cc4)cc(OC)c3c2cc1OC
10 | 4.34 µM | COc1cc(-c2ccccc2)c(OC)c(O)c1-c1ccc(O)cc1
11 | > 30 µM | CO[C@]12OC[C@@H](O)c3c(C)ccc(c31)C1=C(C2=O)C(C)(C)CCC1 (racemic)
12 | > 30 µM | CO[C@@H]1CO[C@]2(OC)C(=O)C3=C(CCCC3(C)C)c3ccc(C)c1c32 (racemic)
13 | > 30 µM | C=Cc1c(C)ccc2c1C(=O)[C@H](O)[C@H]1C(C)(C)CC[C@@H](O)[C@]21C [ASPERGILOID C]
14 | > 30 µM | COc1ccc(-c2cc(OC)c3c(oc4cc(O)c(O)cc43)c2OC)cc1 [CANDIDUSIN C]
15 | 5.79 µM | COc1cc(-c2ccc(O)cc2)c(OC)c(O)c1C1=CC(=O)OC1CC(=O)O (stereo unspecified) [TERPHENOLIDE]
16 | > 30 µM | COc1cc(-c2ccc(O)cc2)c(OC)c(O)c1-c1ccc(O)cc1 [TERPHENYLLIN]
